Tests used:
IL-12 p40 mRNA = test: Northern blot of IL-12 p40 mRNA in IFN-γ/SAC-stimulated human PBMC; format: cell-based; settings: hPBMC; for IL-12 p40 mRNA accumulation: 6 h after SAC
Procedure: Northern blot analysis was performed to examine the mRNA levels of IL-12 p35 and p40. Human PBMC and the human monocyte cell line THP-1 cells were stimulated with IFN-γ/SAC in the presence or absence of Compound 1. Human PBMC were isolated by centrifugation using Ficoll-Paque (Pharmacia Biotech, Uppsala, Sweden) and prepared in RPMI medium supplemented with 10% fetal calf serum (FCS), 100 U/ml penicillin, and 100 μg/ml streptomycin, in a 96-well plate with 5×10^5 cells/well. The cells were then primed with IFN-γ (100 U/ml) and followed by 0.01% SAC or 1 μg/ml LPS, in the presence of different concentrations of Compound 2 or other compounds. The test compounds were prepared in DMSO and the final DMSO concentration was adjusted to 0.25% in all cultures, including the compound-free control. Cell-free supernatants were taken 18 h later for the measurement of cytokines. The THP-1 cells were obtained from American Type Culture Collection (Manassas, Va.) and were cultured in RPMI 1640 (ATCC, Manassas, Va.), supplemented with 10% FCS (ATCC, Manassas, Va.), and 1% penicillin/Streptomycin (Gibco-BRL, New York, N.Y.). Total RNA was isolated and subjected to Northern blot analysis using IL-12 p35 and p40 cDNA probes. We first examined the kinetics of mRNA accumulation in cultures of hPBMC and THP-1 cells primed with IFN-γ followed by SAC stimulation in the presence or absence of 1 μM Compound 1.
We conducted a dose-response study of the inhibitory effects of Compound 1 on IL-12 mRNA expression in IFN-γ/SAC-stimulated hPBMC. Because both IL-12 p35 and p40 mRNA levels were maximal at 6 h after the addition of SAC, this time point was selected for the dose-response analysis.

p50 = test: Western blot of nuclear p50 in THP-1 cells; format: cell-based, human
Source text: In order to understand this changes, the subcellular localization of NF-κB proteins was investigated using western blot analysis.
Of the transcription factors that have been analyzed, two factors, ICSBP and c-Rel, seem to be affected by Compound 1/Compound 2 treatment. ICSBP binds indirectly to the Ets-2 site. The primary NFκB trans-activator for IL-12 is the c-Rel/p50 heterodimer. Other dimers (p65/p50 and p50/p50) either lack activity or have inhibitory functions. Thus, c-Rel plays a role in IL-12 transcription as a result of both activation through NFκB and its interaction with ICSBP. […] The membranes were blocked with 5% milk in TBST buffer and then incubated with anti-c-Rel, anti-p65, anti-p50, anti-ICSBP or anti-PU-1 antibody (all the antibodies were purchased from Santa Cruz) at a dilution of 1:500 for 1 h at room temperature or overnight at 4° C. The membranes were washed and incubated with Horseradish Peroxidase-conjugated anti-rabbit IgG or anti-mouse IgG (Amersham, England) at a dilution of 1:2000 at room temperature for 1 h.
Compound 2 impairs nuclear translocation of c-Rel and p50. We examined the nuclear translocation kinetics of NF-kB family members in LPS stimulated cells treated with Compound 2. THP1 cells were stimulated with LPS in either the presence or absence of 100 nM Compound 2, and the distribution of the NF-κB Rel family members are determined by immunoblotting nuclear (n.p.) extracts collected at 5 min, 15 min, 30 min, 1 h, 3 h and 6 h post-treatment. In response to LPS stimulation, p50 translocated into the nucleus as early as 5 minutes post-stimulation and accumulates as time goes on (FIG. 7, immunoblots and FIG. 8 densitometry). […] The experiment examining p65 nuclear translocation is shown in FIG. 9 (immunoblots) and FIG. 10 (densitometry). In LPS stimulated cells, p65 translocated into the nucleus as early as 5 minutes post-stimulation and accumulated to maximum levels at 15-30 minutes post-stimulation. Treatment of LPS-stimulated cells with Compound 2 had no effect on the kinetics of p65 nuclear entry.
THP-1 cells were suspended in 20 volumes of buffer A containing 10 mM KCl, 10 mM HEPES (pH 7.9), 1 mM MgCl2, 1 mM dithiothreitol (DTT), 0.1% Nonidet p40 (NP-40), and 0.5 mM phenylmethylsulfonyl fluoride (PMSF) and homogenized and centrifuged at 10,000 rpm at 4 C for 5 min. Nuclear pellets were then suspended in buffer C containing 400 mM NaCl, 20 mM HEPES 9 pH 7.9), 15 mM MgCl2, 0.2 mM EDTA, 1 mM DTT, 25% glycerol, 1 mM PMSF, and 10 ug of leupeptin, 20 ug of pepstatin, and 10 ug/ml antipain, incubated for 30 min at 4 C, and centrifuged at 14,000 rpm for 20 min. The supernatants were dialyzed against buffer D containing 100 mM NaCl, 20 mM HEPES (pH 7.9), 20% glycerol, 1 mM PMSF, and 1 mM DTT. […]

## C(=NNc1nc(OCCc2ccccn2)nc(N2CCOCC2)n1)c1c[nH]c2ccccc12 [Compound 1, N-(1H-indol-3-ylmethylene)-N′-[4-morpholin-4-yl-6-(2-pyridin-2-yl-ethoxy)-[1,3,5]triazin-2-yl]-hydrazine]
IL-12 p40 mRNA; 1 μM Compound 1
  expression of the mRNA for the p40 subunit: reduced significantly but incompletely
IL-12 p40 mRNA; 1 nM
  IL-12 p40 mRNA accumulation: barely inhibited
IL-12 p40 mRNA; 10 nM
  IL-12 p40 mRNA accumulation: maximum, though still incomplete inhibition

## Cc1cccc(C=NNc2cc(N3CCOCC3)nc(OCCc3ccccn3)n2)c1 [Compound 2, N-(3-methyl-benzylidene)-N′-[6-morpholin-4-yl-2-(2-pyridin-2-yl-ethoxy)-pyrimidin-4-yl]-hydrazine]
p50; 500 nM, 3 hr, relative to untreated cells
  amount of p50 protein in nuclear: decreased
p50; THP1, IFN-γ plus LPS or IFN-γ plus SAC
  nuclear p50 levels (FIG. 4): decreased slightly
p50; THP1, LPS, 100 nM, 5 minutes to 1 hr post-stimulation
  kinetics of p50 nuclear entry: no effect
p50; THP1, LPS, 100 nM, 3 hours
  nuclear p50 protein levels: small decrease

— patent publication US9910031B2, “Compositions and methods for modulating c-Rel-dependent cytokine production” (Synta Pharmaceuticals Corporation, priority 2003, dated 2018)
